From patent publication US20120270786A1, “INTESTINE AND MUSCLE RECOVERY” (I.N.R.A., priority 2009, published 2012)
Marks after values point to notes of the source that are not given here.

Columns and labels:
Type in all cases: in vivo, rat
[1] = system: small intestinal mass; test: Small intestinal mass recovery after 48 h starvation and 6 or 24 h refeeding
Description: (§1) Young male Wistar rats (50-60 g) were obtained from Charles River (L'Arbresle, France) and maintained in a temperature controlled room (22±1° C.) with a 12 h light/12 h dark cycle. They were given free access to a standard rodent diet (A03; UAR, Epernay sur Orge, France) and to water during a 5 days acclimatization period. Three experiments were conducted. (1) In the first experiment, rats were fed ad libitum or fasted for 1 or 2 days. At the end of the fasting period, rats were anesthetized with intraperitoneal injection of urethane (1.7 g/kg body weight, Sigma Aldrich, Lyon, France) and sacrificed. (2) In the second experiment, animals were randomly divided into control and GLP-2 treated groups (n=26-30 per group). Injections of saline (400 μL) or GLP-2 (20 μg/400 μL of saline) every 12 h started at day 0 and continued until the end of the experiment. At day 4, half of each group was deprived of food for 2 days. At day 6, animals were sacrificed as described. (3) In the last experiment, rats were allocated as described in experiment 2. Control and GLP-2 treated groups (n=20 per group) were divided into 2 groups of fed (n=5) and starved rats (n=15). Saline and GLP-2 injections continued until the sacrifice of the rats. At day 6, 5 rats from the fed and the 48 h-fasted groups treated or not with GLP-2 were sacrificed as described. The remaining fasted animals from the control and GLP-2 treated groups were refed ad libitum from day 6 for 6 or 24 h. After refeeding, rats were sacrificed as described.
(§2) The entire small intestine was rapidly excised, rinsed three times with ice-cold PBS, blotted and weighed. Ten cm caudal to the pyloric sphincter and ten cm cranial to the ileo-caecal junction were taken and discarded. Jejunum and ileum were excised, weighed, and divided in small pieces of 5 cm. The first piece was immediately processed for cathepsin activities. The remaining pieces were frozen in liquid nitrogen, and stored at −80° C. until further analyses. In experiment 3, skeletal muscles (EDL, gastrocnemius and tibialis anterior) were also carefully dissected and weight.

[2] = system: starvation-induced body weight loss and intestine atrophy; test: Starvation-induced body weight loss and intestine atrophy in saline- or GLP-2-injected rats (experiment 2); conditions: for Body weight / Ileum mass / Jejunum mass / Small intestine mass: GLP-2 20 μg every 12 h, mean ± SEM
Description: as §1, §2
(§3) Data are expressed as means±SEM. One-way or two-way ANOVA were used to address for fasting effect in experiment 1 and for fasting and GLP-2 effects experiment 2 and 3. A posteriori PLSD Fisher's test was performed in order to assess for differences among groups. P values <0.05 were considered statistical significance and P values <0.10 were considered statistical tendency.

[3] = system: Cathepsin B+L+S; test: Cathepsin B+L+S activity in the ileum; conditions: compared with untreated rats, P<0.0005
Description: (§4) Young male Wistar rats (50-60 g) were obtained from Charles River (L'Arbresle, France) and maintained in a temperature controlled room (22±1° C.) with a 12 h light/12 h dark cycle. They were given free access to a standard rodent diet (A03; UAR, Epernay sur Orge, France) and to water during a 5 days acclimatization period. Three experiments were conducted. (1) In the first experiment, rats were fed ad libitum or fasted for 1 or 2 days. At the end of the fasting period, rats were anesthetized with intraperitoneal injection of urethane (1.7 g/kg body weight, Sigma Aldrich, Lyon, France) and sacrificed. […]
(§5) The five cm pieces of jejunum and/or ileum were immediately homogenized using a polytron homogenizer in a 10 mmol/L phosphate buffer (pH 7.4) containing 50 mmol/L KCl, 1 mmol/L EDTA and 0.25 mol/L sucrose as described previously.^30 Homogenates were then centrifuged at 1,000 g (10 minutes, 4° C.). […] Cathepsin B and cathepsin B+L+S activities were determined using the fluorogenic substrates Z-arginine-arginine-AMC (ZAA-AMC, 50 μmol/L, Sigma), Z-phenylalanine-arginine-AMC (ZPA-AMC, 30 μmol/L, Sigma), respectively.^30 Neutral pH reducing the cathepsin L activity, the bulk of the cathepsin B+L+S activity measured with ZPA-AMC at pH 7.0 reflects the cathepsin B+S activity. […] Fluorescence was measured continuously at 380 nm excitation and 440 nm emission wavelengths. […]

[4] = system: starvation-induced skeletal muscle atrophy; test: Starvation-induced skeletal muscle atrophy (experiment 3); conditions: for EDL mass / gastrocnemius mass / tibialis anterior mass: GLP-2, mean ± SEM, n=5
Description: as §1, §2, §3

[5] = system: villus height and crypt depth in the jejunum and ileum; test: Histologic and morphometric measurements of villus height and crypt depth in jejunum and ileum; conditions: GLP-2 treatment
Description: as §1
Tissue samples from jejunum and ileum were fixed in 10% formaldehyde buffered with Na2CO3 (10 g/L) and processed for villus height and crypt depth measurements. Treatment designation of slides was blinded at the time of measurement.

[6] = system: Cathepsin B; test: Cathepsin B activity in the ileum; conditions: compared with untreated rats, P<0.002
Description: as §4, §5

[7] = system: Tibialis anterior, gastrocnemius and EDL muscle masses; test: Skeletal muscle mass recovery after 48 h starvation and 24 h refeeding
Description: as §1, §2

[8] = system: proteasome; test: Peptidase activities of the proteasome in the small intestine of fed and starved rats
Description: as §4
Proteins from pieces of jejunum and/or ileum were homogenized using a polytron homogenizer, in ice-cold buffer (pH 7.5) containing 50 mmol/L Tris/HCl, 5 mmol/L MgCl2, 250 mmol/L sucrose, 10 mmol/L ATP, 1 mmol/L DTT, 10 μg/mL aprotinin, 10 μg/mL leupeptin, 10 μg/mL antipain, 10 μg/mL pepstatin A, and 0.2 mmol/L phenylmethylsulphonylfluoride (PMSF). […] The protein content of the proteasome preparation was determined using the Biorad protein assay following the manufacturer instructions. […] The accumulation of AMC at 37° C. during 45 minutes was measured continuously as described for cathepsin activities measurements. The difference between arbitrary fluorescence units recorded with or without 40 μmol/L […]of the proteasome inhibitor MG132 (Affiniti) in the reaction medium was calculated. […]

[9] = system: Cathepsin (B, B+S, B+L+S and D); test: Cathepsin activities in the jejunum of fed and starved rats
Description: as §4, §5

[10] = GLP-2 effect, two-way ANOVA, P<0.0001

“HGDGSFSDEMNTILDNLATRDFINWLIQTKITD (Rat GLP-2 sequence with an Ala-->Gly exchange in position 2) [Rat recombinant GLP-2, [Ala] in position 2 substituted by [Gly] to make the peptide resistant to DPP IV degradation]” was tested. Which small intestinal atrophy ([1]; after 6 h of refeeding, P<0.001) did it give?
The small intestinal atrophy was 15%.

What about the small intestinal atrophy ([1]; after 24 h of refeeding) of the same sequence?
The small intestinal atrophy was “totally absent”.

And the small intestine recovery ([1]; after 24 h of refeeding, GLP-2 treated rats)?
The small intestine recovery was “totally recovered”.

What about the “recovery of the small intestinal mass” value ([1]; refed rats after 48 h starvation, compared to saline injected animals) of the same sequence?
Its value is “accelerated recovery”.

What about the “atrophy of the jejunum” value ([2]; GLP-2-treated starved rats vs. saline injected-fed rats, P<0.005) of the same sequence?
The value was −12%.

What about the “increase of jejunal mass” value [2, 10] of the same sequence?
Its value is 21%.

What about the “increase of total small intestinal mass” value [2, 10] of the same sequence?
The value was 22%.

What about the “increase of ileal mass” value ([2]; GLP-2 effect, two-way ANOVA, P<0.005) of the same sequence?
Its value is 17.5%.

And the “starvation-induced loss of body weight” value ([2]; GLP-2 treated group, starved vs fed)?
The value was −22%.

And the “whole small intestine and ileum mass” value ([2]; GLP-2 treated-starved rats compared with saline injected-fed rats)?
The value was “similar”.

And the Body weight ([2]; fed rats, day 6)?
The Body weight was 112.5 ± 1.7^a g.

And the Ileum mass ([2]; fed rats)?
Its Ileum mass is 1.24 ± 0.07^b g.

And the Jejunum mass ([2]; fed rats)?
Its Jejunum mass is 3.45 ± 0.08^b g.

And the Small intestine mass ([2]; fed rats)?
Its Small intestine mass is 5.57 ± 0.17^b g.

And the Body weight ([2]; rats starved 2 days)?
Its Body weight is 87.2 ± 1.0^b g.

What about the Ileum mass ([2]; rats starved 2 days) of the same sequence?
The Ileum mass was 1.02 ± 0.05^a g.

What about the Jejunum mass ([2]; rats starved 2 days) of the same sequence?
The Jejunum mass was 2.62 ± 0.09^d g.

What about the Small intestine mass ([2]; rats starved 2 days) of the same sequence?
Its Small intestine mass is 4.56 ± 0.11^a g.

What about the “reduction of the atrophy of the small intestine induced by starvation” value ([2]; starved rats receiving GLP-2) of the same sequence?
Its value is 16%.

And the “decrease of cathepsin B+L+S activity” value [3]?
The value was −50%.

And the EDL mass ([4]; fed rats)?
Its EDL mass is 45.7 ± 0.9^a mg.

What about the gastrocnemius mass ([4]; fed rats) of the same sequence?
The gastrocnemius mass was 0.513 ± 0.013^a g.

What about the tibialis anterior mass ([4]; fed rats) of the same sequence?
The tibialis anterior mass was 195.7 ± 5.0^a mg.

What about the “skeletal muscle loss (tibialis anterior, gastrocnemius, EDL)” value ([4]; following 2 days of starvation) of the same sequence?
Its value is “did not prevent”.

What about the EDL mass ([4]; starved rats (48 h)) of the same sequence?
The EDL mass was 37.2 ± 0.9^b mg.

What about the gastrocnemius mass ([4]; starved rats (48 h)) of the same sequence?
The gastrocnemius mass was 0.415 ± 0.006^b g.

And the tibialis anterior mass ([4]; starved rats (48 h))?
Its tibialis anterior mass is 156.6 ± 2.0^b mg.

And the “villus height in the ileum” value [5]?
The value was “no effect”.

And the “crypt depth in the ileum” value ([5]; following fasting)?
The value was “did not inhibit the reduction”.

And the “crypt depth in the jejunum” value ([5]; following starvation)?
The value was “blocked the decrease”.

What about the “reduction of the villus height in the jejunum” value ([5]; following starvation) of the same sequence?
Its value is −13%.

What about the “decrease of cathepsin B activity” value [6] of the same sequence?
Its value is −43%.

And the EDL muscle recovery ([7]; after 24 h of refeeding)?
The EDL muscle recovery was “totally recovered”.

And the “Tibialis anterior muscle recovery” value ([7]; after 24 h of refeeding)?
Its value is “totally recovered”.

What about the gastrocnemius atrophy ([7]; after 24 h of refeeding, compared to GLP-2 treated fed rats, P<0.05) of the same sequence?
The gastrocnemius atrophy was 9%.

What about the skeletal muscle recovery ([7]; refeeding after 48 h starvation) of the same sequence?
The skeletal muscle recovery was “enhanced”.

What about the “Peptidase activities of the proteasome” value ([8]; jejunum or ileum, daily administration of GLP-2) of the same sequence?
The value was “not modified”.

What about the “increase of the chymotrypsin- and the trypsin-like activities” value ([8]; jejunum, following fasting) of the same sequence?
The value was “did not block the increase”.

And the cathepsin activities [9]?
The cathepsin activities was “blocked the increase”.
